The numbers were not newly measured in patent US6214377A (Jenapharm GmbH, priority 1994, dated 2001), which cites them from elsewhere.

The conditions of series [1]: human body.
The conditions of series [2]: peroral administration.

On to `COc1ccc2[nH]cc(CCNC(C)=O)c2c1` [melatonin, N-acetyl-5-methoxy-triptamine], for which, in series [1], the half-life period result is “about 30 minutes”. Besides, the “side effects of unphysiological overdose” value in series [2] was “Increased spasmogenic situations, confusion, and sleeplessness”.
